How the values were obtained:
[1] = test system: nontumorigenic human breast epithelial cell line (MCF-10A); assay: SRB toxicity assay, MCF-10A; format: cell-based; conditions: 48 h incubation
Method: The toxicity of 1–5 was also evaluated against normal human fetal lung fibroblast (MRC-5) cells. Their IC50 values lie from 2.7 to 4.1 μM (Table ). The toxicity of these compounds was also evaluated against the nontumorigenic human breast epithelial cell line (MCF-10A), which is widely used as a model for normal human breast cells. They closely resemble normal human mammary epithelial cells in structure and are regulated by hormones and growth factors.
Cytotoxicity was evaluated using the SRB colorimetric assay at λ = 568 nm, with cell survival percentages calculated relative to the untreated control cells. Detailed information on the SRB assay procedure can be found in the previous publication. ,–

[2] = test system: calf thymus (CT)-DNA; assay: CT-DNA-EB fluorescence displacement; format: binding; conditions: for quenching of fluorescence intensity of EB-DNA at 588 nm: EB 2.3 μM, CT-DNA 26 μM, complex 0–600 μM; for apparent binding constant K app: EB displacement
Method: The DNA-complex binding properties can also be studied by fluorescent spectroscopy can also be studied by fluorescent spectroscopy. ,– EB emits intense fluorescence in the presence of DNA due to its strong intercalation between adjacent DNA base pairs. As EB binds to DNA […], its displacement by a compound could indicate either intercalative binding or minor groove interaction, among other possibilities. ,– The emission spectra of the CT-DNA-EB complex were recorded in both the absence and presence of compounds 1–5 (Figure S29). The fluorescence intensity at λmax ^em = 588 nm was quenched by 60.2 (1). 58.5 (2), 62.0 (3), 61.9 (4) and 61.6 (5) %, for 1–5 respectively, compared to the initial fluorescence intensity of the EB-DNA solution.
The fluorescence spectroscopy method using EB was employed to determine the relative DNA binding properties of complexes 1–5 into CT-DNA. The emission spectra at 588 nm of EB (2.3 μM) solutions which contain CT-DNA (26 μM) in the absence or presence of various concentrations of complexes 1–5 (0–600 μM) were recorded upon their excitation at 527 nm. ,− The apparent binding constant (K app) was calculated using the equation: KEB*[EB]=Kapp*[DNA binder] where [DNA binder] is the concentration of the complex at a 50% reduction of the fluorescence, K EB= 10^7 M^–1, and [EB] = 2.3 μM. ,−
The concentration of the drug required to achieve a 50% reduction in fluorescence is determined from the plot of I o/I versus the concentration of the complex [DNA binder], Io/I=1+KSV*[DNA binder] where I o and I represent the fluorescence intensities of CT-DNA in the absence and presence of complexes 1–5, respectively. K SV is the Stern–Volmer dynamic quenching constant and [DNA binder] is the total concentration of the quencher (complexes 1–5). ,−

[3] = biological target: T1, lipoxygenase (LOX) (Glycine max, UniProt P08170); assay: Inhibition of linoleic acid peroxidation by LOX; format: biochemical; conditions: for IC50: linoleic acid 0.3 mM, borate buffer pH 9, read-out: IC50 against LOX; for pIC50 LOX: p(IC50)= -Log(IC50), Table S4, this study
T1 sequence (P08170 1-839): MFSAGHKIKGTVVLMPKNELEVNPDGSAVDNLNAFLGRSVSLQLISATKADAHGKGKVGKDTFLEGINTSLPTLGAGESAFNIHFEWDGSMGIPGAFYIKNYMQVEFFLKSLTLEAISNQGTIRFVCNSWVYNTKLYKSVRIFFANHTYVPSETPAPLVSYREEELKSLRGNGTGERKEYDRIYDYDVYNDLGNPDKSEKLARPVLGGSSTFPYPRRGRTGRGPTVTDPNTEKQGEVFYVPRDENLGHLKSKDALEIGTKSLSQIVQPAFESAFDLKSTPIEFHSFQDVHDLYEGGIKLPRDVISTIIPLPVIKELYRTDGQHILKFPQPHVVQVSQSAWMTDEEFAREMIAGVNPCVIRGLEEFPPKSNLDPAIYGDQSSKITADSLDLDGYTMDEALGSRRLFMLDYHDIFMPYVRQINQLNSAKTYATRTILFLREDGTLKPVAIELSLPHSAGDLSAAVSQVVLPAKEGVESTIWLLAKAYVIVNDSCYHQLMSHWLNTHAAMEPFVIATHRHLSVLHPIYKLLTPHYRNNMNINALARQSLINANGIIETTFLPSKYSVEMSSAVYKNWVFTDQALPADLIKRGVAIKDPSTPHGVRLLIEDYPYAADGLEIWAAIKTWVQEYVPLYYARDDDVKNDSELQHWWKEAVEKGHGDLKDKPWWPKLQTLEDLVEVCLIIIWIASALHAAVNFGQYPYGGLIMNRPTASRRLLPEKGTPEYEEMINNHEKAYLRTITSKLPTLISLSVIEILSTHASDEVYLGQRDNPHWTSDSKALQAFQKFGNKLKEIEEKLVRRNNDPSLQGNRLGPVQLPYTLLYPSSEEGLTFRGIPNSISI
Method: This study performed as previously reported. , In brief, a 0.2 M borate buffer solution at pH 9 was prepared by dissolving boric acid in double-distilled water (ddw). The pH was then adjusted to 9.0 using a 50% w/w sodium hydroxide solution.
The linoleic acid substrate solution was prepared as follows: 0.05 mL of linoleic acid was dissolved in 0.05 cm^3 of 95% ethanol within a volumetric flask. Subsequently, double-distilled water was gradually added until reaching a final volume of 5 cm^3. This solution was then diluted with 30 cm^3 of borate buffer.
The LOX enzyme solution was prepared in an ice-cold bath by diluting a stock solution of 10,000 U/mL. For each reaction, 500 U of enzyme was used per 3 cm^3 of reaction mixture. One unit of LOX activity corresponds to an increase in absorbance at 234 nm of 0.001 per minute.
Enzyme activity was monitored by UV spectrophotometry. Specifically, 0.05 cm^3 of enzyme solution was added to a cuvette containing 2 cm^3 of linoleic acid solution, along with the appropriate volumes of buffer and inhibitor solutions 1–5 (concentration range of 1.5 to 12.5 μΜ). The enzymatic activity was determined by measuring the increase in absorbance at 234 nm, which corresponds to the oxidation of linoleic acid (ε = 25,000 M^–1 cm^–1). During the assays, the substrate concentration was maintained constant at 0.3 mM, while the buffer and inhibitor volumes were adjusted to achieve final inhibitor concentrations ranging from 2 to 30 μM.
The degree of LOX activity (A%) in the presence or absence of the 1–5 was calculated according to the following equation: , A%=(Vo(inthepresenceofinhibitor/Vo(withoutinhibitor))×100(%) where V o is the initial rate.
The value of the initial rate (V o, μΜ min^–1) was calculated according to the following formula: Vo=ΔC/Δt=ΔA/ε×Δt=tgα/ε where C is the concentration of the product (hydroperoxy-linoleic acid), t is the reaction time, ε is the molar extinction coefficient of hydroperoxy-linoleic acid, and tgα represents the slope of the kinetic curve obtained by plotting absorbance against time.

SMILES | IC50 [1] | quenching of fluorescence intensity of EB-DNA at 588 nm [2] | apparent binding constant K app [2] | IC50 [3] | pIC50 LOX [3]
Fc1ccc(-c2nnc([S][Ag]([PH](c3ccccc3)(c3ccccc3)c3ccccc3)([PH](c3ccccc3)(c3ccccc3)c3ccccc3)[PH](c3ccccc3)(c3ccccc3)c3ccccc3)o2)cc1 [compound 3] | 10.9 µM | 62.0% | 7.0 × 10^4 M^–1 | 6.8 µM | 5.2
Fc1ccccc1-c1nnc([S][Ag]([PH](c2ccccc2)(c2ccccc2)c2ccccc2)([PH](c2ccccc2)(c2ccccc2)c2ccccc2)[PH](c2ccccc2)(c2ccccc2)c2ccccc2)o1 [compound 2] | 13.9 µM | 58.5% | 6.7 × 10^4 M^–1 | 7.3 µM | 5.1
c1ccc(-c2nnc([S][Ag]([PH](c3ccccc3)(c3ccccc3)c3ccccc3)([PH](c3ccccc3)(c3ccccc3)c3ccccc3)[PH](c3ccccc3)(c3ccccc3)c3ccccc3)o2)cc1 [compound 1] | 10.6 µM | 60.2% | 6.3 × 10^4 M^–1 | 2.5 µM | 5.6
Clc1cccc(-c2nnc([S][Ag]([PH](c3ccccc3)(c3ccccc3)c3ccccc3)([PH](c3ccccc3)(c3ccccc3)c3ccccc3)[PH](c3ccccc3)(c3ccccc3)c3ccccc3)o2)c1 [compound 5] | 16.1 µM | 61.6% | 6.5 × 10^4 M^–1 | 1.8 µM | 5.7
Clc1ccccc1-c1nnc([S][Ag]([PH](c2ccccc2)(c2ccccc2)c2ccccc2)([PH](c2ccccc2)(c2ccccc2)c2ccccc2)[PH](c2ccccc2)(c2ccccc2)c2ccccc2)o1 [compound 4] | 16 µM | 61.9% | 6.9 × 10^4 M^–1 | 7.5 µM | 5.1

Source: PMC12239085, “Silver(I) Ions Bridging Oxadiazole-2-thione Derivatives with Mitochondriotropic Agents: A Promising Strategy for Potent Anticancer Chemotherapy” (Inorganic Chemistry, 2025)
